Results from patent US20220128564A1, “USE OF A STIMULATING AGENT TO ASSAY IMMUNE CELL POTENCY” (RESEARCH INSTITUTE AT NATIONWIDE CHILDREN'S HOSPITAL, priority 2019, published 2022).

How the values were obtained:
[1] = tested on: fresh peripheral blood NK cells; assay: PHA-induced cytokine assay, fresh peripheral blood NK cells; format: cell-based; details: fresh NK cells (N=10), 10^6 cells, 1 hour stimulation with PHA, supernatant
From the text: (§1) Use of tumor cells to test effector function of therapeutic immune cells has been a standard practice. These target cells add biological variabilities to the outcomes of assay. Also, this assay set up is more tedious and complicated adding up variabilities due to target condition, plate set up, person-to-person difference in techniques. The therapeutic response of NK cells via comparison of a PHA cytokine assay against a widely use tumor cell (K562) mediated cytokine assay. The levels of cytokine indicate potency of the response from the NK cells.
(§2) After establishing an optimal number of cells (10^6) for the assay, multiple donors of fresh peripheral blood NK cells (N=10) and expanded NK cells (N=18) were stimulated with PHA to produce cytokines, and after 1 hour cytokine in the supernatant was assessed. Expression of most cytokines are similar between the two types of NK cells, but several cytokines and chemokines related to NK cell function were highly differentially expressed in response to stimulation (FIG. 6). Next the expression of 6 cytokines in fresh and expanded NK cells was measured after 1 hour stimulation with PHA. Pentraxin-3 (mean 1,062 vs 7), IL-8 (mean 821 vs 11), and Chitinase 3-like 1 (mean 620 vs 7) were highly overexpressed in fresh NK cells compared to expanded NK cells, and IFN-γ (mean 15 vs 105), IL-2 (mean 3 vs 141), and CD30 (mean9 vs. 156) were highly overexpressed in expanded NK cells compared to fresh NK cells (FIG. 7). On the basis of overexpression alone, a cut-off of expressing 10 pg/mL of both IFN-γ and IL-2 has 94% specificity […] and 89% sensitivity (16 of 18) in differentiating expanded NK cells from fresh peripheral blood NK cells (FIG. 8).

expanded NK cells = assay: PHA-induced cytokine assay, expanded NK cells; format: cell-based; details: expanded NK cells (N=18), 10^6 cells, 1 hour stimulation with PHA, supernatant
From the text: as §1, §2

## phytohemagglutinin [PHA]
[1]
  CD30 expression (mean): 9
  Chitinase 3-like 1 expression (mean): 620
  IFN-γ expression (mean): 15
  IL-2 expression (mean): 3
  IL-8 expression (mean): 821
  Pentraxin-3 expression (mean): 1,062
Expanded NK cells
  CD30 expression (mean): 156
  Chitinase 3-like 1 expression (mean): 7
  IFN-γ expression (mean): 105
  IL-2 expression (mean): 141
  IL-8 expression (mean): 11
  Pentraxin-3 expression (mean): 7
